For 69 compounds, solubility results are on record in the OPERA property sets (Mansouri et al. 2018).

In brackets after ≈: the same amount, converted by molar mass.

As usually defined, the solubility is the concentration that dissolves in the medium under given conditions.

Conditions in one data set: not given
On to `CN(C)CCCCl`, for which the solubility worked out at 633 mM (≈ 77000 µg/mL).

Take `COC(=O)CCCCCCCCC(=O)OC`: the solubility came to 0.521 mM (≈ 120 µg/mL).

Regarding `CC(NC(=O)C=CC(=O)O)C(=O)O` (centres undefined), the solubility was determined as 107 mM (≈ 20000 µg/mL).

As to `CCOC(=O)N[C@@H](C=O)[C@@H](O)[C@H](O)[C@H](O)CO`, the solubility is 1300 mM (≈ 327000 µg/mL).

On to `CCOCCOC(=O)CCCCCCCCC(=O)OCCOCC`, for which the solubility stood at 0.635 mM (≈ 220 µg/mL).

Regarding `O=C(O)C1CCNCC1C(=O)O` (centres undefined), the solubility amounted to 289 mM (≈ 50000 µg/mL).

`Oc1ccccc1Oc1ccccc1` showed a solubility of 0.591 mM (≈ 110 µg/mL).

`CCS(=O)(=O)CI` gave a solubility of 107 mM (≈ 25000 µg/mL).

Consider `N[C@@H](Cc1cc([N+](=O)[O-])c(O)c([N+](=O)[O-])c1)C(=O)O`, for which the solubility came to 30.7 mM (≈ 8330 µg/mL).

Take `COc1ccc(NC(=N)Nc2ccc(OC)cc2)cc1`: the solubility worked out at 1.84 mM (≈ 500 µg/mL).

The compound `Nc1ccc2snnc2c1` gave a solubility of 49.6 mM (≈ 7500 µg/mL).

On to `O=C(O)C1=CCCc2ccccc21`, for which the solubility worked out at 1.61 mM (≈ 280 µg/mL).

With `CC(=O)c1ccc(O)c(C(=O)O)c1`, the solubility was found to be 5.88 mM (≈ 1060 µg/mL).

With `O=C(Cc1ccccc1)N[C@@H](CSSC[C@H](NC(=O)Cc1ccccc1)C(=O)O)C(=O)O`, the solubility came out at 14.7 mM (≈ 7000 µg/mL).

For the compound `CCC(CC)C(=O)N(CC)CC`, the solubility is 81.7 mM (≈ 14000 µg/mL).

`O=S(=O)(CCCl)CCOCCS(=O)(=O)CCCl` returned a solubility of 11.5 mM (≈ 3750 µg/mL).

`CNCl` returned a solubility of 1910 mM (≈ 125000 µg/mL).

`CCCCCSS(=O)CCCCC` (centres undefined) had a solubility of 0.674 mM (≈ 150 µg/mL).

Turning to `Oc1ncncc1Br`, the solubility turned out to be 357 mM (≈ 62500 µg/mL).

Compound `C[Si](C)(C)CN` displayed a solubility of 17.3 mM (≈ 1790 µg/mL).

As to `O=C1CN(CO)C(=O)CN1CO`, the solubility worked out at 383 mM (≈ 66700 µg/mL).

`CCOC(=O)N(CC)CC` returned a solubility of 86.1 mM (≈ 12500 µg/mL).

In turn, `CCS(=O)(=O)CCSP(=S)(OC)OC` came in with a solubility of 2.87 mM (≈ 800 µg/mL).

In turn, `CCC(CC)(S(=O)(=O)CC)S(=O)(=O)CC` gave a solubility of 8.66 mM (≈ 2220 µg/mL).

The compound `CCNC(CC)C(=O)O` (centres undefined) returned a solubility of 381 mM (≈ 50000 µg/mL).

Take `O=c1[nH]c(-c2ccccc2)ncc1Br`: the solubility is 0.332 mM (≈ 83.3 µg/mL).

For `O=C(Cc1ccccc1)c1ccc(O)cc1`, the solubility was found to be 31.6 mM (≈ 6700 µg/mL).

The compound `O=C(c1cccc2ccccc12)N(O)c1ccccc1` registered a solubility of 0.114 mM (≈ 30 µg/mL).

Still in this data set, the particulars now being: 20 °C.
Compound `O=C(O)CC(O)C(=O)O` (centres undefined) yielded a solubility of 5790 mM (≈ 777000 µg/mL).

On to `c1ncc2n[nH]nc2n1`, for which the solubility turned out to be 586 mM (≈ 71000 µg/mL).

Turning to `CC1(c2ccccc2)C(=O)NC(=O)NC1=O`, the solubility was found to be 3.48 mM (≈ 760 µg/mL).

Take `C=CCOc1ccccc1C(N)=O`: the solubility is 5.93 mM (≈ 1050 µg/mL).

`O=CC(=O)Cc1ccccc1` returned a solubility of 6.75 mM (≈ 1000 µg/mL).

In turn, `NC(=O)NN=C1CCCCC1` returned a solubility of 38.7 mM (≈ 6000 µg/mL).

Compound `S=c1[nH]sc(=S)[nH]1` registered a solubility of 17.3 mM (≈ 2600 µg/mL).

The compound `Nc1nc(N)nc(Cl)n1` yielded a solubility of 4.12 mM (≈ 600 µg/mL).

`C/C=C\CC1(C/C=C/C)C(=O)NC(=O)NC1=O`: the solubility stood at 6.35 mM (≈ 1500 µg/mL).

Compound `Cc1nc(C)c(C(=O)O)cc1C(=O)O` yielded a solubility of 1.55 mM (≈ 303 µg/mL).

`O=C(O)CCNC(=O)Nc1ccc([N+](=O)[O-])cc1` yielded a solubility of 1.97 mM (≈ 500 µg/mL).

`CSc1ncc2nccnc2n1` came in with a solubility of 17.5 mM (≈ 3130 µg/mL).

In the case of `Cc1ccc(P(=O)(O)O)c(C)c1`, the solubility turned out to be 80.6 mM (≈ 15000 µg/mL).

Compound `CCCc1nnc(NS(=O)(=O)c2ccc(N)cc2)s1` displayed a solubility of 0.493 mM (≈ 147 µg/mL).

For `O=c1nccc[nH]1`, the solubility was determined as 4730 mM (≈ 455000 µg/mL).

In turn, `NC(=O)C(Br)Br` came in with a solubility of 87.6 mM (≈ 19000 µg/mL).

Turning to `OCC1=C[C@@H](O)[C@@H]2C=CO[C@@H](OC3OC(CO)C(O)C(O)C3O)[C@H]12` (some centres undefined), the solubility was 1030 mM (≈ 356000 µg/mL).

Compound `CC(O)C(C)Cl` (centres undefined) registered a solubility of 613 mM (≈ 66600 µg/mL).

In the case of `Cn1c(=O)cnc2cncnc21`, the solubility came to 123 mM (≈ 20000 µg/mL).

`c1ccc2c(c1)Nc1ccc3ccccc3c1S2` gave a solubility of 0.000267 mM (≈ 0.0667 µg/mL).

In turn, `O=c1cccc2[nH]ccnc1-2` displayed a solubility of 45 mM (≈ 6580 µg/mL).

In the case of `ClCCOCOCCCl`, the solubility was found to be 45.1 mM (≈ 7800 µg/mL).

As to `CC=CC(=O)Nc1ccc(O)cc1`, the solubility came out at 2.26 mM (≈ 400 µg/mL).

Regarding `NC(=O)NC(=O)C=CC(=O)O`, the solubility came out at 12 mM (≈ 1900 µg/mL).

`COc1ncnc2nccnc12` displayed a solubility of 77.1 mM (≈ 12500 µg/mL).

On to `Cn1cnc2c(=O)n(C)c(=O)n(C)c2c1=O`, for which the solubility is 10.4 mM (≈ 2300 µg/mL).

Compound `FC(F)(F)c1nc2ncncc2[nH]1` had a solubility of 354 mM (≈ 66700 µg/mL).

For `O=C1CCCCCN1C(=O)c1ccccc1`, the solubility was determined as 6.81 mM (≈ 1480 µg/mL).

`C=CCCN=C=S` displayed a solubility of 4.06 mM (≈ 460 µg/mL).

For the compound `Sc1nnc(S)s1`, the solubility turned out to be 176 mM (≈ 26400 µg/mL).

`Cn1cc2nccnc2nc1=O` registered a solubility of 123 mM (≈ 20000 µg/mL).

Regarding `O=C(O)C(Br)=C(Br)I`, the solubility worked out at 95.6 mM (≈ 34000 µg/mL).

Compound `COc1c(C(=O)O)cc(C(=O)O)cc1C(=O)O` gave a solubility of 29.1 mM (≈ 7000 µg/mL).

Turning to `NN=c1nc[nH]c2nccnc12`, the solubility came out at 13.7 mM (≈ 2220 µg/mL).

In the case of `O=C(O)CCCCCCCCCCO`, the solubility amounted to 1.98 mM (≈ 400 µg/mL).

As to `CSc1ncnc2nccnc12`, the solubility was 4.32 mM (≈ 769 µg/mL).

Compound `CC(=O)C1CC(CC(=O)O)C1(C)C` (centres undefined) returned a solubility of 266 mM (≈ 49000 µg/mL).

Compound `CCC(C#N)(CC)C(=O)NC(N)=O` had a solubility of 27.3 mM (≈ 5000 µg/mL).

Staying with this data set, now noted: 21 °C.
Turning to `NC(N)=N/C(N)=N/c1ccc2ccccc2c1`, the solubility worked out at 2.82 mM (≈ 641 µg/mL).

On to `O=C(O)c1ccccc1C(=O)c1ccc(O)cc1`, for which the solubility amounted to 2.61 mM (≈ 632 µg/mL).

As to `COc1ccc(NC(N)=O)cc1`, the solubility worked out at 25.6 mM (≈ 4250 µg/mL).
